Source: patent US11229623B2 (GlaxoSmithKline Intellectual Property (No.2) Limited, priority 2016, dated 2022)

What follows are molecules tested against T1, human TRPV4 (Homo sapiens, UniProt Q9HBA0) (assay: FLIPR assay for hTRPV4 expressed in BHK cells: inhibition of Agonist Compound-induced calcium signal). Conditions: hTRPV4 in BHK/AC9 cells, FLIPR calcium signal, agonist at EC80; reported as range class; read-out: IC50.
T1 construct: expressed in transfected cells; host or cells: BHK/AC9 cells transduced with BacMam virus
Assay type: cell-based
Outline: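 Calcium influx through TRPV4 tracked by Fluo-4 fluorescence on FLIPR. Cells: BHK/AC9 transduced with BacMam-hTRPV4 at MOI 78, 24 h culture post-plating (15,000 cells/well). Dye loading: 2 μM Fluo-4 AM with 500 μM Brilliant Black quencher, 1-1.5 h, room temperature, dark.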

T1 sequence (Q9HBA0 whole entry): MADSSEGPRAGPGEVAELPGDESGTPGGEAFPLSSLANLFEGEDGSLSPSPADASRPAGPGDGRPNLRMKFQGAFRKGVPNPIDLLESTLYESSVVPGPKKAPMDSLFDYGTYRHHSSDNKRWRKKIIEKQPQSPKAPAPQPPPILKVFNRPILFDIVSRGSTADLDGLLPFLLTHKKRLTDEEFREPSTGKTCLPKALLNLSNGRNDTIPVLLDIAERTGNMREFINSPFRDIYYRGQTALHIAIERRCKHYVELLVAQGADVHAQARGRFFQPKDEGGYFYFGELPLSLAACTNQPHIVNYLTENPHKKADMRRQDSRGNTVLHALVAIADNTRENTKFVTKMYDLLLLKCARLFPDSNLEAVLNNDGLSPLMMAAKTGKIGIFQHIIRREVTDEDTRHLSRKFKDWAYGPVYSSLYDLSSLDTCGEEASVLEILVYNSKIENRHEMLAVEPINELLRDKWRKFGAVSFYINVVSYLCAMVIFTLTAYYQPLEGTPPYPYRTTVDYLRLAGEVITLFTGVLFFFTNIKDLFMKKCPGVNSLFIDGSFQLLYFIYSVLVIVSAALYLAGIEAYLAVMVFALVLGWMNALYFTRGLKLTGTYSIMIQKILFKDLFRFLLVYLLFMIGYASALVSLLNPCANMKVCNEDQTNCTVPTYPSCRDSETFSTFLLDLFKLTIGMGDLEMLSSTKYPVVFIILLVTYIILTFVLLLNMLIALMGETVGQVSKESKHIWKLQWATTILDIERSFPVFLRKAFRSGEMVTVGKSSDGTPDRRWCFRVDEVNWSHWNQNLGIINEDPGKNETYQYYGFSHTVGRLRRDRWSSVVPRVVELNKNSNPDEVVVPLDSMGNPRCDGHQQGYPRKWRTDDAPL

SMILES	IC50
CC#Cc1cc(C#N)ccc1S(=O)(=O)N1C[C@H](Oc2ccc(C#N)c(F)c2)[C@](O)(CO)C1 [Example 224, 4-(((3S,4R)-1-((4-cyano-2-(prop-1-yn-1-yl)phenyl)sulfonyl)-4-hydroxy-4-(hydroxymethyl)pyrrolidin-3-yl)oxy)-2-fluorobenzonitrile]	10 to 100 nM
N#Cc1ccc(O[C@H]2CN(S(=O)(=O)c3ccc(Cl)cc3C#N)C[C@@]23CNC(=O)O3)cc1F [Example 254, 4-(((5S,9S)-7-((4-chloro-2-cyanophenyl)sulfonyl)-2-oxo-1-oxa-3,7-diazaspiro[4.4]nonan-9-yl)oxy)-2-fluorobenzonitrile]	10 to 100 nM
N#Cc1ccc(O[C@H]2CN(S(=O)(=O)c3ccccc3Cl)C[C@@]2(O)CO)cc1F [Example 85, 4-(((3S,4R)-1-((2-chlorophenyl)sulfonyl)-4-hydroxy-4-(hydroxymethyl)pyrrolidin-3-yl)oxy)-2-fluorobenzonitrile]	10 to 100 nM
N#Cc1ccc(O[C@H]2CN(S(=O)(=O)c3ccccc3Br)C[C@@]2(O)CO)cc1F [Example 117, 4-(((3S,4R)-1-((2-bromophenyl)sulfonyl)-4-hydroxy-4-(hydroxymethyl)pyrrolidin-3-yl)oxy)-2-fluorobenzonitrile]	10 to 100 nM
N#Cc1ccc(O[C@H]2CN(S(=O)(=O)c3ccc(C(F)(F)F)s3)C[C@@]2(O)CO)cc1F [Example 112, 2-fluoro-4-(((3S,4R)-4-hydroxy-4-(hydroxymethyl)-1-((5-(trifluoromethyl)thiophen-2-yl)sulfonyl)pyrrolidin-3-yl)oxy)benzonitrile]	10 to 100 nM
CC#Cc1ccc(S(=O)(=O)N2C[C@H](Oc3ccc(C#N)c(F)c3)[C@](O)(CO)C2)cn1 [Example 223, 2-fluoro-4-(((3S,4R)-4-hydroxy-4-(hydroxymethyl)-1-((6-(prop-1-yn-1-yl)pyridin-3-yl)sulfonyl)pyrrolidin-3-yl)oxy)benzonitrile]	10 to 100 nM
COc1ccc(C#N)cc1O[C@H]1CN(S(=O)(=O)c2ccc(C(F)(F)F)cc2C#N)C[C@@]1(O)CO [Example 54, 2-(((3R,4S)-4-(5-cyano-2-methoxyphenoxy)-3-hydroxy-3-(hydroxymethyl)pyrrolidin-1-yl)sulfonyl)-5-(trifluoromethyl)benzonitrile]	10 to 100 nM
N#Cc1ccc(O[C@H]2CN(S(=O)(=O)c3ccc(Cl)c4nonc34)C[C@@]2(O)CO)cc1F [Example 59, 4-(((3S,4R)-1-((7-chlorobenzo[c][1,2,5]oxadiazol-4-yl)sulfonyl)-4-hydroxy-4-(hydroxymethyl)pyrrolidin-3-yl)oxy)-2-fluorobenzonitrile]	10 to 100 nM
N#Cc1ccc(O[C@H]2CN(S(=O)(=O)c3ccc(OC(F)F)cn3)C[C@@]2(O)CN)cc1F [Example 247, 4-(((3S,4S)-4-(aminomethyl)-1-((5-(difluoromethoxy)pyridin-2-yl)sulfonyl)-4-hydroxypyrrolidin-3-yl)oxy)-2-fluorobenzonitrile, 2,2,2-trifluoroacetate]	10 to 100 nM
N#Cc1ccc(O[C@H]2CN(S(=O)(=O)c3ccc(Br)cc3C(F)(F)F)C[C@@]2(O)CO)cc1F [Example 121, 4-(((3S,4R)-1-((4-bromo-2-(trifluoromethyl)phenyl)sulfonyl)-4-hydroxy-4-(hydroxymethyl)pyrrolidin-3-yl)oxy)-2-fluorobenzonitrile]	10 to 100 nM
CCC[C@H](O)[C@]1(O)CN(S(=O)(=O)c2ccc(Cl)cn2)C[C@@H]1Oc1ccc(C#N)c(F)c1 [Example 189, 4-(((3S,4R)-1-((5-chloropyridin-2-yl)sulfonyl)-4-hydroxy-4-((S)-1-hydroxybutyl)pyrrolidin-3-yl)oxy)-2-fluorobenzonitrile]	10 to 100 nM
N#Cc1ccc2cc(O[C@H]3CN(S(=O)(=O)c4ccc(C(F)(F)F)cc4C#N)C[C@@]3(O)CO)ccc2c1 [Example 18, 6-(((3S,4R)-1-((2-cyano-4-(trifluoromethyl)phenyl)sulfonyl)-4-hydroxy-4-(hydroxymethyl)pyrrolidin-3-yl)oxy)-2-naphthonitrile]	10 to 100 nM
N#Cc1ccc(O[C@H]2CN(S(=O)(=O)c3cnc(C(F)(F)F)nc3)C[C@@]2(O)CO)cc1F [Example 128, 2-fluoro-4-(((3S,4R)-4-hydroxy-4-(hydroxymethyl)-1-((2-(trifluoromethyl)pyrimidin-5-yl)sulfonyl)pyrrolidin-3-yl)oxy)benzonitrile]	100 to 1000 nM

Other lines, results leading:

IC50	SMILES
10 to 100 nM	N#Cc1cc(OCC(F)(F)F)c(O[C@H]2CN(S(=O)(=O)c3ccc(C(F)(F)F)nc3)C[C@@]2(O)CO)cc1F [Example 175, 2-fluoro-4-(((3S,4R)-4-hydroxy-4-(hydroxymethyl)-1-((6-(trifluoromethyl)pyridin-3 yl)sulfonyl)pyrrolidin-3-yl)oxy)-5-(2,2,2-trifluoroethoxy) benzonitrile]
0.1 to 10 nM	CCC[C@@H](O)[C@]1(O)CN(S(=O)(=O)c2ccc(Cl)cn2)C[C@@H]1Oc1ccc(C#N)c(F)c1 [Example 198, 4-(((3S,4R)-1-((5-chloropyridin-2-yl)sulfonyl)-4-hydroxy-4-((R)-1-hydroxybutyl)pyrrolidin-3-yl)oxy)-2-fluorobenzonitrile]
10 to 100 nM	C[C@@H](N)[C@]1(O)CN(S(=O)(=O)c2ccc(Cl)cn2)C[C@@H]1Oc1ccc(C#N)c(F)c1 [Example 256, 4-(((3S,4R)-4-((R)-1-aminoethyl)-1-((5-chloropyridin-2-yl)sulfonyl)-4-hydroxypyrrolidin-3-yl)oxy)-2-fluorobenzonitrile, 2,2,2-trifluoroacetate]
0.1 to 10 nM	C#Cc1ccc(S(=O)(=O)N2C[C@H](Oc3ccc(C#N)c(F)c3)[C@](O)(CO)C2)c(C#N)c1 [Example 220, 4-(((3S,4R)-1-((2-cyano-4-ethynylphenyl)sulfonyl)-4-hydroxy-4-(hydroxymethyl)pyrrolidin-3-yl)oxy)-2-fluorobenzonitrile]
0.1 to 10 nM	N#Cc1ccc(O[C@H]2CN(S(=O)(=O)c3ccc(C(F)(F)F)nc3Cl)C[C@@]2(O)CO)cc1F [Example 100, 4-(((3S,4R)-1-((2-chloro-6-(trifluoromethyl)pyridin-3-yl)sulfonyl)-4-hydroxy-4-(hydroxymethyl)pyrrolidin-3-yl)oxy)-2-fluorobenzonitrile]
10 to 100 nM	N#Cc1cc(F)ccc1S(=O)(=O)N1C[C@H](Oc2ccc(C(F)(F)F)cc2)[C@@](O)(CO)C1 [Example 149, 5-fluoro-2-(((3S,4S)-3-hydroxy-3-(hydroxymethyl)-4-(4-(trifluoromethyl)phenoxy)pyrrolidin-1-yl)sulfonyl)benzonitrile]
10 to 100 nM	N#Cc1ccc(O[C@H]2CN(S(=O)(=O)c3ccc(Cl)cn3)C[C@@]2(O)CO)c2ccccc12 [Example 57, 4-(((3S,4R)-1-((5-chloropyridin-2-yl)sulfonyl)-4-hydroxy-4-(hydroxymethyl)pyrrolidin-3-yl)oxy)-1-naphthonitrile]
10 to 100 nM	N#Cc1cc(C(F)(F)F)ccc1S(=O)(=O)N1C[C@H](Oc2cc(F)c(F)c(F)c2)[C@](O)(CO)C1 [Example 26, 2-(((3R,4S)-3-hydroxy-3-(hydroxymethyl)-4-(3,4,5-trifluorophenoxy)pyrrolidin-1-yl)sulfonyl)-5-(trifluoromethyl)benzonitrile]
0.1 to 10 nM	CCCOc1cc(C#N)c(F)cc1O[C@H]1CN(S(=O)(=O)c2ccc(C(F)(F)F)cc2C#N)C[C@@]1(O)CO [Example 160, 4-(((3S,4R)-1-((2-cyano-4-(trifluoromethyl)phenyl)sulfonyl)-4-hydroxy-4-(hydroxymethyl)pyrrolidin-3-yl)oxy)-2-fluoro-5-propoxybenzonitrile]
0.1 to 10 nM	N#Cc1ccc(O[C@H]2CN(S(=O)(=O)c3ccc(C(F)(F)F)cc3Cl)C[C@@]2(O)CO)cc1F [Example 63, 4-(((3S,4R)-1-((2-chloro-4-(trifluoromethyl)phenyl)sulfonyl)-4-hydroxy-4-(hydroxymethyl)pyrrolidin-3-yl)oxy)-2-fluorobenzonitrile]
0.1 to 10 nM	CCNC[C@]1(O)CN(S(=O)(=O)c2ccc(C(F)(F)F)cc2C#N)C[C@@H]1Oc1ccc(C#N)c(F)c1 [Example 238, 4-(((3S,4S)-1-((2-cyano-4-(trifluoromethyl)phenyl)sulfonyl)-4-((ethylamino)methyl)-4-hydroxypyrrolidin-3-yl)oxy)-2-fluorobenzonitrile, 2,2,2-trifluoroacetate]
0.1 to 10 nM	N#Cc1ccc(O[C@H]2CN(S(=O)(=O)c3ccc(Cl)cc3C#N)C[C@@]2(O)CO)cc1F [Example 3, 4-(((3S,4R)-1-((4-chloro-2-cyanophenyl)sulfonyl)-4-hydroxy-4-(hydroxymethyl)pyrrolidin-3-yl)oxy)-2-fluorobenzonitrile]
0.1 to 10 nM	N#Cc1cc(C(F)(F)F)ccc1S(=O)(=O)N1C[C@H](Oc2ccc3nonc3c2)[C@](O)(CO)C1 [Example 7, 2-(((3R,4S)-4-(benzo[c][1,2,5]oxadiazol-5-yloxy)-3-hydroxy-3-(hydroxymethyl)pyrrolidin-1-yl)sulfonyl)-5-(trifluoromethyl)benzonitrile]
0.1 to 10 nM	N#Cc1ccc(O[C@H]2CN(S(=O)(=O)c3ccc(C(F)(F)F)cc3C#N)C[C@]2(O)CO)cc1F [Example 135, 4-(((3S,4S)-1-((2-cyano-4-(trifluoromethyl)phenyl)sulfonyl)-4-hydroxy-4-(hydroxymethyl)pyrrolidin-3-yl)oxy)-2-fluorobenzonitrile]
0.1 to 10 nM	N#Cc1ccc(S(=O)(=O)N2C[C@H](Oc3ccc(Cl)cc3)[C@](O)(CO)C2)c(Cl)c1 [Example 106, 3-chloro-4-(((3R,4S)-4-(4-chlorophenoxy)-3-hydroxy-3-(hydroxymethyl)pyrrolidin-1-yl)sulfonyl)benzonitrile]
0.1 to 10 nM	N#Cc1ncc(O[C@H]2CN(S(=O)(=O)c3ccc(Cl)cc3Cl)C[C@@]2(O)CO)cc1F [Example 36, 5-(((3S,4R)-1-((2,4-dichlorophenyl)sulfonyl)-4-hydroxy-4-(hydroxymethyl)pyrrolidin-3-yl)oxy)-3-fluoropicolinonitrile]
